{"source": "patent US11213513B2", "about": "“Compositions and methods for promoting hair growth with Mpc1 inhibitors” (The Regents of the University of California, priority 2017, dated 2022)", "type_in_all_cases": "in vivo, mouse", "key": {"17 month old mice": {"test_system": "17 month old mice", "test": "Treatment of elderly (17 month old) shaved mice, hair coat re-growth", "settings": "20 uM in PLO gel every other day, up to 30 days after shaving; DMSO control patchy", "procedure": "17 month old mice were shaved and treated every other day with DMSO or 20 uM of the compound of formula (I) diluted in PLO gel (pluronic lecithin organogel). Images were acquired at the indicated day after shaving and carried out for 30 days."}, "Ldh": {"test_system": "Ldh", "test": "In situ Ldh enzyme activity assay in epidermis of topically treated animals", "settings": "in situ stain", "text": "(§1) Animals were acquired from Jackson Labs (K15-CrePR, Lgr5-CreER and Lgr6-CreER), Rutter Lab (Mpc^fl/fl) and Seth Lab (Ldha^fl/fl) (Xie, H. et al., Cell Metab., 19, 795-809 (2014)) and maintained under conditions set forth by IUCUC and ARC. For experiments that include analysis of the telogen stage of the hair cycle, animals were harvested at post-natal day 50, for telogen-anagen transition animals were harvested at day 70, and for anagen animals were harvested at post-natal day 90. For experiments that include analysis of transgenic animals, K15-CrePR animals were shaved and treated by intraperitoneal injections of mifepristone and Lgr5-CreER and Lgr6-CreER animals were shaved and treated with tamoxifen (10 mg/ml dissolved in sunflower seed oil, 2 mg per day for 3 days) during telogen (post-natal day 50), and monitored for hair regrowth following shaving. Phenotypes shown from treated animals were produced 3-4 weeks after mifepristone administration. For FIG. 3, wildtype C57BL/6J animals were shaved at post-natal day 50 and treated topically with Transderma PLO Gel (premium lecithin organogel), PLO Gel Ultramax Base (TR220) (vehicle), or the compound of formula (I) (Compound (I)) (20 μM) (Sigma Aldrich product PZ0160) for indicated periods of time. […]"}, "[1]": {"test_system": "wildtype C57BL/6J animals", "test": "Topical treatment of shaved telogen (day 50) mice, monitoring pigmentation, hair growth and hair cycle", "text": "Animals were acquired from Jackson Labs (K15-CrePR, Lgr5-CreER and Lgr6-CreER), Rutter Lab (Mpc^fl/fl) and Seth Lab (Ldha^fl/fl) (Xie, H. et al., Cell Metab., 19, 795-809 (2014)) and maintained under conditions set forth by IUCUC and ARC. For experiments that include analysis of the telogen stage of the hair cycle, animals were harvested at post-natal day 50, for telogen-anagen transition animals were harvested at day 70, and for anagen animals were harvested at post-natal day 90. For experiments that include analysis of transgenic animals, K15-CrePR animals were shaved and treated by intraperitoneal injections of mifepristone and Lgr5-CreER and Lgr6-CreER animals were shaved and treated with tamoxifen (10 mg/ml dissolved in sunflower seed oil, 2 mg per day for 3 days) during telogen (post-natal day 50), and monitored for hair regrowth following shaving. Phenotypes shown from treated animals were produced 3-4 weeks after mifepristone administration. For FIG. 3, wildtype C57BL/6J animals were shaved at post-natal day 50 and treated topically with Transderma PLO Gel ([…] lecithin organogel), PLO Gel Ultramax Base (TR220) (vehicle), or the compound of formula (I) (Compound (I)) (20 μM) (Sigma Aldrich product PZ0160) for indicated periods of time. Both male and female animals were used in this study in approximately equal numbers with no apparent difference in phenotype between genders. All phenotypes described are representative of a minimum of n=3 littermate pairs as indicated in the description of each experiment. No statistical measure was used to determine the sample size beforehand, nor were statistics used to measure effects, as the results were essentially positive or negative as represented in the figures. The results described include data from all treated animals. The investigators were not blinded to allocation during the experimental data collection, nor were the experiments randomized. The results shown were representative images from at least three independently treated animals, and genotyping was performed both before and after animal treatment for confirmation.\nTissues were isolated from the indicated genotypes and embedded fresh in optimal cutting temperature (OCT) compound for frozen tissue preparations, or fixed overnight in 4% formalin and embedded in paraffin. For frozen tissue, sectioning was performed on a Leica 3200 Cryostat, and fixed for 5 minutes in 4% paraformaldehyde. Paraffin embedded tissue was sectioned, de-paraffinized, and prepared for histology. All sections prepared for staining were blocked in staining buffer containing appropriate control IgG (Goat, Rabbit etc.). Immunohistochemistry was performed on formalin-fixed paraffin-embedded tissue with citrate or Tris buffer antigen retrieval with the following antibodies: Ki67 (Abcam ab16667, 1:50), p-S6 (Cell Signaling CST2215, 1:50), Sox9 (Abcam ab185230, 1:1000), Ldha (Abcam ab47010, 1:100), Ldh (Abcam ab125683, 1:100), p-Stat3 (Abcam ab68153, 1:200), p-Stat1 (Abcam ab109461, 1:200), p-Stat5 (Abcam ab32364; 1:50), Gli3 (Abcam ab6050; 1:100), β-catenin (Abcam ab32572; 1:500). The DAKO EnVision+ HRP Peroxidase System (Dako K400911-2) and Dako AEC Substrate Chromogen (Dako K346430-2) was used for detection. Images were collected on an Olympus BX43 Upright Microscope and Zeiss Model Axio Imager M1 Upright Fluorescence Microscope. Protein samples for western blots and enzymatic assays were extracted from FACS sorted epidermal populations in RIPA lysis buffer (Pierce) with Halt protease and phosphatase inhibitors (Thermo-Fisher) and precipitated in acetone for concentration. The following antibodies were used: β-actin (Abcam ab8227; 1:1000), β-actin (Santa Cruz sc-47778; 1:1000), C-Myc (Abcam ab32072; 1:1000), N-Myc (Santa Cruz sc-53993; 1:200), H3K27Ac (Abcam ab177178; 1:200), Mpc1 (Sigma HPA045119).\nBoth male and female animals were used in this study in approximately equal numbers with no apparent difference in phenotype between genders. […]"}, "HFSCs": {"test_system": "HFSCs", "test": "Metabolomic analysis (LC-MS) of lactate in HFSCs sorted from topically treated skin", "text": "as §1, with “administration.” for “administration. For FIG. 3, wildtype C57BL/6J animals were shaved at post-natal day 50 and treated topically with Transderma PLO Gel (premium lecithin organogel), PLO Gel Ultramax Base (TR220) (vehicle), or the compound of formula (I) (Compound (I)) (20 μM) (Sigma Aldrich product PZ0160) for indicated periods of time.”\nWhole dorsal and ventral mouse skin were excised and floated on trypsin (0.25%) for 1 h at 37° C. or overnight at 4° C. […] The cells were then filtered through a […] cell strainer and stained for fluorescence-activated cell sorting (FACS) processing with CD34 Monoclonal Antibody (RAM34), FITC, eBioscience™ (Catalog #:11-0341-82) and CD49d (Integrin alpha 4) Monoclonal Antibody (R1-2), PE, eBioscience™ (Catalog #: 12-0492-81). […]"}, "[2]": {"settings": "topical treatment of animals in telogen (day 50)"}}, "note": "Entries after “also recorded” stand apart in the source; their conditions may differ."}
{"smiles": "N#CC(=Cc1cn(-c2ccccc2)c2ccccc12)C(=O)O", "note": "[compound of formula (I)]", "values": [{"measurement": "hair coat re-growth in aged mice", "setting": "17 month old mice", "value": "more complete re-growth; also recorded: more complete hair growth"}, {"measurement": "Ldh enzyme activity in interfollicular epidermis", "setting": "Ldh; topical application for 48 hours during telogen", "value": "increased Ldh activity in the interfollicular epidermis; also recorded: also seen in interfollicular epidermis"}, {"measurement": "Ldh enzyme activity in HFSCs", "setting": "Ldh; topically treated animals", "value": "strong activity in HFSCs"}, {"measurement": "effect on proliferation of the interfollicular epidermis", "setting": "[1]; [2]", "value": "minor hyperproliferation of the interfollicular epidermis"}, {"measurement": "effect on the hair cycle", "setting": "[1]; [2]", "value": "robust acceleration of the hair cycle"}, {"measurement": "time of treatment to full anagen, indicated by full coat of hair", "setting": "[1]; topical, 20 μM", "value": 14, "unit": "days"}, {"measurement": "skin pathology: anagen entry (down growth of the follicle and hypodermal thickening)", "setting": "[1]; topical, 20 μM, vehicle animals remained in telogen", "value": "entered an accelerated anagen at 8 weeks"}, {"measurement": "time of treatment to pigmentation and hair growth, indicative of entry into anagen", "setting": "[1]; topical, 20 μM, vehicle control showed none even after 12 days", "value": 8, "unit": "days"}, {"measurement": "time to beginning of hair cycle acceleration (time to observed phenotype)", "setting": "[1]; topical, at least 6 pairs of animals, vehicle vs compound", "value": "3 to 5", "unit": "days"}, {"measurement": "lactate levels, replicate experiment", "setting": "HFSCs; 48-72 hours of treatment", "value": "increase in lactate levels"}, {"measurement": "total levels of lactate in sorted HFSCs", "setting": "HFSCs; topical application, 48 hours", "value": "increases total levels of lactate"}]}
